# Experimental data as given in paper PMC11267547, “Advancing drug discovery through assay development: a survey of tool compounds within the human solute carrier superfamily” (Frontiers in Pharmacology, 2024).
# Assays:
# SLC2A9 = SLC2A9 (Homo sapiens, UniProt Q9NRM0); assay: Membrane potential dye-based assay, HEK293 cells stably expressing isoform-1 or -2 of SLC2A9 vs mock; assay type: cell-based; conditions: SLC2A9 isoform-1 or -2 cells compared with non-transduced (mock) cells
# Method: FLIPR Membrane Potential Blue Dye was used to detect the compound activities for those membrane transporters that are electrogenic or whose activity is associated with changes in membrane potential, as previously described ([Jensen and BräunerOsborne, 2004]). In brief, cells are seeded at cell line-specific density in black clear-bottom poly-D-Lysine-coated 384-well plates (Greiner Bio-One) in DMEM high-glucose medium with 10% FBS, 1% P/S, and 2 mM UltraGlutamine I (25 µL/well). Furthermore, 24 h after seeding, the culture medium is removed, and the cells are loaded with 20 µL/well of 0.5 X FMP Blue Dye in assay buffer (modified Tyrode’s buffer, 130 mM NaCl, 5 mM KCl, 1 mM MgCl2, 2 mM CaCl2, 5 mM NaHCO3, and 20 mM HEPES pH 7.4). The plates are subsequently incubated for at least 30 min at room temperature in the dark. Then, 10 µL/well of test compounds and controls is added at defined concentrations (0.5% DMSO final conc.) in the FLIPR TETRA instrument (Molecular Devices), and emitted fluorescence is recorded using a λexc 510–545-nm/λem 565–625-nm filter. The dose–response curves for the 19 compounds were prepared starting from 3 µM (final top concentration), the half-log serial dilution factor. For data analysis, Genedata Screener 19.0 software was used.
# ENT1 (SLC29A1) = target: T1, ENT1 (SLC29A1) (Homo sapiens, UniProt Q99808); assay: Displacement assay with [3H]NBTI on human erythrocyte membranes; assay type: binding; conditions: [3H]NBTI displacement on erythrocyte membranes and TRACT assay (Figure 1E, Supplementary Figure S1)
# T1 construct: from tissue; host or cells: human erythrocyte membranes
# T1 sequence (Q99808 whole entry): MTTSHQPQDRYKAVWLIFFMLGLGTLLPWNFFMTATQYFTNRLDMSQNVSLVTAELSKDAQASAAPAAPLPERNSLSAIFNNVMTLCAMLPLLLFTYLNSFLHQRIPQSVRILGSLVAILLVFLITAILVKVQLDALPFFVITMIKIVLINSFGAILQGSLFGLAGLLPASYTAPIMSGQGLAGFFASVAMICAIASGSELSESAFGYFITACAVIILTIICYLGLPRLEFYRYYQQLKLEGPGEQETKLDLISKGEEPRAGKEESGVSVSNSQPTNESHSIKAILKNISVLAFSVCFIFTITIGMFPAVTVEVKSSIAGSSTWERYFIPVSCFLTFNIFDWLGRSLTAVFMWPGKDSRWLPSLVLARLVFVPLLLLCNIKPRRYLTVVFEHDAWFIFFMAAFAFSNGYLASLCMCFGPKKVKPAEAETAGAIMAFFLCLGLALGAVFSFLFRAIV
# Method: Displacement assay with [3H]NBTI on human erythrocyte membranes expressing ENT1 (SLC29A1) was performed at 25°C, as described previously ([Vlachodimou et al., 2020]).
# SLC28A2 (CNT2) = assay: Impedance-based TRACT assay, HEK293–JumpIn–SLC28A2 cells, adenosine response; assay type: cell-based, human; conditions: 31.6 µM pretreatment, non-induced (-dox) cells
# SLC1A5 = target: T2, SLC1A5 (Homo sapiens, UniProt Q15758); assay: AspSnFR biosensor assay, asparagine uptake in HEK293 cells; assay type: cell-based; conditions: cells pretreated with 50 µM
# T2 construct: host or cells: HEK293 expressing AspSnFR, transiently transfected with gpASNase1
# T2 sequence (Q15758 whole entry): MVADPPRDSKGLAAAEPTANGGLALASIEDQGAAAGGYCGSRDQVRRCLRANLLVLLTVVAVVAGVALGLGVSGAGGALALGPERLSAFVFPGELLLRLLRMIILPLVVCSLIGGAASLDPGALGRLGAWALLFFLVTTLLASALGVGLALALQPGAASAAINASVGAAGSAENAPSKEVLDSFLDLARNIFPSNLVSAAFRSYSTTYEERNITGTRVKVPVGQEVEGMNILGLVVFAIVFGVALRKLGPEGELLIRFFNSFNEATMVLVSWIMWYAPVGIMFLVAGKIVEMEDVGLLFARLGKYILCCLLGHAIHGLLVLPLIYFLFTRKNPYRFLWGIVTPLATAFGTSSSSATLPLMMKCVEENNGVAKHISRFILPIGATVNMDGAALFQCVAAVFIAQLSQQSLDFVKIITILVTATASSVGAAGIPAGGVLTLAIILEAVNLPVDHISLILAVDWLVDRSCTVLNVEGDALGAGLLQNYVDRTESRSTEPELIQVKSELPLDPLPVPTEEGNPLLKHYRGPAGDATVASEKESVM
# Method: HEK293 cells expressing AspSnFR were transiently transfected with EBPF-gpASNase1, trypsinized, and resuspended in 10% dialyzed FCS/PBS. Post-treatment with test compounds or vehicle, varying concentrations of asparagine were added. After a 30-min incubation at room temperature, flow cytometry analysis was performed using the BD LSR Fortessa X-20, following the protocol previously described ([Hellweg et al., 2024]).
# [1] = tested on: all proteins (SLCs and non-SLCs); assay: Selectivity entropy score against all proteins (S_other); design: species or system human
# Method: (§1) To assess the selectivity, a selectivity entropy score ([Uitdehaag and Zaman, 2011]) was implemented in KNIME. The entropy score was calculated twice for each compound, first against all SLCs (S_SLCs) and then against all proteins (S_other). Ideally, a low entropy value indicates a high selectivity of the inhibitor. However, as the inhibitors were not tested on a full panel of targets, but often only against one to three proteins, a low entropy value might not reflect its true selectivity. Therefore, Pareto ranking was performed using the corresponding node from the Erlwood KNIME open-source cheminformatics KNIME community extension. This ranking minimizes S_SLCs and S_other while maximizing the activity value and the count of SLCs the inhibitor was tested on.
# MPC2 = tested on: MPC2; design: method as in GtoPdb 3023, PubMed 35278701; conditions: negative logarithm of the Molar value of IC50, Ki, EC50, and Kd values; ref GtoPdb 3023, PubMed 35278701; cited from earlier work
# all SLCs = assay: Selectivity entropy score against all SLCs (S_SLCs); design: species or system human; conditions: selectivity entropy score for all activity values against SLCs
# Method: as §1
# PDE1C = tested on: PDE1C; design: method as in ChEMBL; conditions: negative logarithm of the Molar value; ref ChEMBL; cited from earlier work
# PDE10A = tested on: PDE10A; design: method as in ChEMBL; conditions: negative logarithm of the Molar value; ref ChEMBL; cited from earlier work
# GPR35 = tested on: GPR35; design: method as in ChEMBL; conditions: negative logarithm of the Molar value; ref ChEMBL; cited from earlier work
# PDE5A = tested on: PDE5A; design: method as in ChEMBL; conditions: negative logarithm of the Molar value; ref ChEMBL; cited from earlier work
# Sequence of SLC2A9 (Q9NRM0 51-540 limits assumed): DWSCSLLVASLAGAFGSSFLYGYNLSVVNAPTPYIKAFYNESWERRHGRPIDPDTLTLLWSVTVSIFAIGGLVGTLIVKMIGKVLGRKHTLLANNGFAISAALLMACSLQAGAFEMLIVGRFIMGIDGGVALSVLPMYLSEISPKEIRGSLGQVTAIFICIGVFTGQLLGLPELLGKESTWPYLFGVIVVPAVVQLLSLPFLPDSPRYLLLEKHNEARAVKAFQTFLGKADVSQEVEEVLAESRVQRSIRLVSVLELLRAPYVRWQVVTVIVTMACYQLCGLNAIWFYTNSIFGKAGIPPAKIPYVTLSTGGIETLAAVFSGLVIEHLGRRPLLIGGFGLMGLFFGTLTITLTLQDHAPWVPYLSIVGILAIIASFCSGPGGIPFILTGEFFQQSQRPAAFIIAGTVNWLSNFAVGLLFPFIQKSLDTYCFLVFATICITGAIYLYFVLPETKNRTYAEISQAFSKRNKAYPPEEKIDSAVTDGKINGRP
smiles,measurement,setting,value
CCc1oc2ccccc2c1C(=O)c1cc(Br)c(O)c(Br)c1 [Benzbromarone],effect in SLC2A9 membrane potential dye assay vs mock cells,SLC2A9,unspecific SLC2A9-independent effect
Nc1ncnc2c1nc(NCc1ccc(-c3ccccc3)cc1)n2[C@@H]1O[C@H](CO)[C@@H](O)[C@H]1O [CNT2 inhibitor 1],inhibition of SLC29A1,ENT1 (SLC29A1),also inhibited SLC29A1
same,selectivity for SLC28A2 in the TRACT assay,SLC28A2 (CNT2),not selective
Cc1cccc(COc2ccccc2CN(CC[C@H](N)C(=O)O)Cc2ccccc2OCc2cccc(C)c2)c1 [V-9302],effect in SLC1A5 asparagine uptake assay,SLC1A5,no effect
O=C1CN(/N=C/c2ccc([N+](=O)[O-])o2)C(=O)N1 [nitrofurantoin],S_other,[1],0
same,primary_SLC_act (MPC2),MPC2,5.48
same,S_SLCs,all SLCs,0
CCCOc1ccccc1-c1nc2nn[nH]c2c(=O)[nH]1 [zaprinast],other_targets_act (PDE1C),PDE1C,4.89
same,other_targets_act (PDE10A),PDE10A,4.66
same,S_other,[1],1.11
same,other_targets_act (GPR35),GPR35,5.71
same,primary_SLC_act (MPC2),MPC2,6.52
same,S_SLCs,all SLCs,0
same,other_targets_act (PDE5A),PDE5A,5.95
